Here are results for one molecule from paper PMC5508973 (ChemMedChem, 2017).

One series deals with NIH3T3. Briefly: cells. The format is cell-based. The conditions noted are these: Mus musculus, NIH3T3, 24 h.
Series [1] relates to peripheral blood mononuclear cells (PBMCs) from normal healthy donors. As to conditions: treatment with 50 μM.
For series [2], the system named is 17.7 kb segment of nDNA at the b-globin gene and 8.9 kb fragment of mtDNA. Put plainly: DNA damage by PCR amplification of nDNA and mtDNA. The format is cell-based. As to conditions: PCR amplification after cell treatment.
A further series has as its system K562. Briefly: cells. The format is cell-based. The conditions noted are these: Homo sapiens, K562, 24 h.
A further series concerns MM.1R. Briefly: cells. The format is cell-based. The conditions noted are these: Homo sapiens, 24 h.
The next series concerns LO2. Put plainly: cells. As to conditions: Homo sapiens, L02, 24 h. The format is cell-based.
The test system of the next series is K562/ADR. Briefly: cells. The format is cell-based. As to conditions: Homo sapiens, 24 h.
A further series has as its system HeLa. Briefly: cells. In kind it is cell-based. As to conditions: Homo sapiens, 24 h.
In series [3] the test system is CBL-resistant K562 cell line. The format is cell-based, Human. The conditions noted are these: K562, 24-h incubation, Annexin-V.
For another series, the system named is MM.1S. Put plainly: cells. The format is cell-based. As to conditions: Homo sapiens, MM1.S, 24 h.
The test system of a further series is U937. Put plainly: cells. In kind it is cell-based. As to conditions: Homo sapiens, U-937, 24 h.
Series [4] concerns primary chronic lymphocytic leukemia (CLL) cells. In kind it is cell-based, Human. The conditions noted are these: treatment with 50 μM.

As usually defined, the IC50 is the midpoint of a concentration-inhibition curve. Low values mean inhibition by little substance, high ones a need for much substance.

As for `O=C(O)CCCc1ccc(N(CCCl)CCCl)cc1` [CBL, chlorambucil], the half-maximal inhibitory concentration (IC50) in the series on NIH3T3 is > 600 µM; in the series on K562, 417 ± 27.9 µM; in the series with MM.1R, 236 ± 16.9 µM; in the series on LO2, > 600 µM; in the series on K562/ADR it was > 1000 µM; in the series with HeLa, 321 ± 33.2 µM. Also, the IC50 was found to be 47.4 ± 5.08 µM with MM.1S and 45.7 ± 3.71 µM in the series on U937. The PBMCs killed in series [1] is given as 11%. Further, the “DNA damage in nuclear and mitochondrial genome” value in series [2] is on record as “primarily damaged nDNA with very few mitochondrial lesions”. Besides, in series [3], the apoptotic cell population is 11.24%. In series [4], the CLL cells killed is given as 32.3%.
